For the test, the system named is Molt-4 cells. Description: Molt-4 cell killing activity test (CCK-8). The class given is cell-based. Conditions: for activity for killing Molt-4 cells, in words: comparison with C1, the targeting ligand or control molecules; for killing Molt-4 cells at different concentrations (Figure 1), in words: 0.001-3 µM, comparison with control molecules. Here is the method: Molt-4 cells were cultured and amplified in 10 cm dishes by using RPMI-1640 medium supplemented with 10% fetal bovine serum. Actively growing and healthy Molt-4 cells were collected, centrifuged at 1000 rpm for 5 minutes, and after removing the supernatant, the cells were resuspended in fresh RPMI-1640 medium containing 10% fetal bovine serum. Cell counting was then performed. The cell density was adjusted to 120,000 cells per milliliter, and 100 µL of the cell suspension was added to each well of a 96-well transparent cell culture plate. It was noted that the edge wells of the 96-well plate were not used for testing; and 300 µL of PBS alone was added to these wells to reduce medium evaporation.
The small molecule compounds to be tested for activity were prepared. A series of small molecule concentration gradients (0.001, 0.003, 0.01, 0.03, 0.1, 0.3, 1, and 3 µM) were pre-set, and a series of 2× drug dilutions for the above concentrations were prepared in RPMI-1640 medium containing 10% fetal bovine serum. 100 µL of the above medium containing the gradient concentrations of the drug was added to each well of a 96-well plate pre-seeded with cells, so that the final drug concentration in each well was the pre-set concentration gradient. Three replicate wells were used for each tested drug concentration. The 96-well plate was placed back in a 37°C incubator, and the cell viability was measured after three days.
The plate was taken out three days after adding the drugs, and 100 µL of pre-prepared CCK-8 working solution was added to each well. The CCK-8 working solution was obtained through diluting a CCK-8 stock solution (C0041, Beyotime) by 10-fold volumn with a serum-free RPMI-1640 medium. The 96-well plates with the added CCK-8 working solution were placed back in the 37°C incubator and incubated for 0.5-2 hours. The plates were then taken out, and the absorbance value (OD value) of each well was measured at a wavelength of 450 nm, and the cell viability in each experimental group was calculated according to the following formula: Relative cell viability (%) = […] × 100%.

Where [1] appears, read: Homo sapiens, 72 h, Molt-4 cells, three days, CCK-8, read-out: EC50 (Molt-4).
Where [2] appears, read: Homo sapiens, Bcl-xL-positive Molt-4 cells, read-out: cellular activity / killing activity (Molt-4 cells).

Like-named read-outs stand apart in the source and are kept apart here.

Turning to `Cc1c(-c2ccc(N3CCc4cccc(C(=O)Nc5nc6ccccc6s5)c4C3)nc2C(=O)NCCn2cc(COCCNc3cccc4c3C(=O)N(C3CCC(=O)NC3=O)C4=O)nn2)cnn1CC12CC3CC(CC(C3)C1)C2` (stereo not drawn) [APR1], the “activity for killing Molt-4 cells, in words” value (from here on “activity”) was “good cellular activity similar to those of the targeting ligand per se”. Moreover, the EC50 under setting [1] was less than 10 nM.

For the compound `CN[C@@H](C)C(=O)N[C@H](C(=O)N1CCC[C@H]1c1nc(C(=O)c2cccc(OCCN3CCC(CN4CCN(CC#Cc5ccc(OCCCc6ccc(N7CCc8cccc(C(=O)Nc9nc%10ccccc%10s9)c8C7)nc6C(=O)O)c(F)c5)CC4)CC3)c2)cs1)C1CCCCC1` [APL-1], under setting [1], the EC50 was in the range of 10 to 100 nM.

With `Cc1c(-c2ccc(N3CCc4cccc(C(=O)Nc5nc6ccccc6s5)c4C3)nc2C(=O)NCCn2cc(COCCOCCOCCOCCNc3cccc4c3C(=O)N(C3CCC(=O)NC3=O)C4=O)nn2)cnn1CC12CC3CC(CC(C3)C1)C2` (stereo not drawn) [APR4], the “activity” value is recorded as “good cellular activity similar to those of the targeting ligand per se”. In addition, under setting [1], the EC50 is less than 10 nM.

On to `O=C1CCN(c2ccc(N3CCN(C(=O)CCCN4CCN(CC#Cc5ccc(OCCCc6ccc(N7CCc8cccc(C(=O)Nc9nc%10ccccc%10s9)c8C7)nc6C(=O)O)c(F)c5)CC4)CC3)cc2)C(=O)N1` [APQ5b], for which the EC50 under setting [1] lay in the range of 10 to 100 nM.

`Cc1c(-c2ccc(N3CCc4cccc(C(=O)Nc5nc6ccccc6s5)c4C3)nc2C(=O)NCCOCCOCCOCCNc2cccc3c2C(=O)N(C2CCC(=O)NC2=O)C3=O)cnn1CC12CC3CC(CC(C3)C1)C2` (stereo not drawn) [APF3]: the “activity” value is recorded as “good cellular activity similar to those of the targeting ligand per se”. The EC50 under setting [1] is less than 10 nM.

For the compound `Cc1c(-c2ccc(N3CCc4cccc(C(=O)Nc5nc6ccccc6s5)c4C3)nc2C(=O)NCCn2cc(COCCOCCNc3cccc4c3C(=O)N(C3CCC(=O)NC3=O)C4=O)nn2)cnn1CC12CC3CC(CC(C3)C1)C2` (stereo not drawn) [APR2], the “activity” value was “good cellular activity similar to those of the targeting ligand per se”. The EC50 under setting [1] is less than 10 nM.

For the compound `CN(C)CC#Cc1ccc(OCCCc2sc(N3CCc4cccc(C(=O)Nc5nc6ccccc6s5)c4C3)nc2C(=O)O)c(F)c1` [Compound A-1155463, reference compound], the EC50 (Molt-4 cells, three days, CCK-8, read-out: EC50 (Molt-4)) is less than 10 nM.

As for `O=C1CCN(c2ccc(N3CCN(CC4CCN(CC#Cc5ccc(OCCCc6ccc(N7CCc8cccc(C(=O)Nc9nc%10ccccc%10s9)c8C7)nc6C(=O)O)c(F)c5)CC4)CC3)cc2)C(=O)N1` [APQ7b], the EC50 under setting [1] is 10 to 100 nM.

Take `Cc1c(-c2ccc(N3CCc4cccc(C(=O)Nc5nc6ccccc6s5)c4C3)nc2C(=O)NCCOCCOCCOCCOCCNc2cccc3c2C(=O)N(C2CCC(=O)NC2=O)C3=O)cnn1CC12CC3CC(CC(C3)C1)C2` (stereo not drawn) [APF4]: the “activity” value is recorded as “good cellular activity similar to those of the targeting ligand per se”. Besides, under setting [1], the EC50 is less than 10 nM.

In the case of `[2H]C1([2H])Cc2cccc(C(=O)Nc3nc4ccccc4s3)c2CN1c1ccc(-c2cnn(CC34CC5CC(CC(C5)C3)C4)c2C)c(C(=O)NCCOCCOCCOCCNc2cccc3c2C(=O)N(C2CCC(=O)NC2=O)C3=O)n1` (stereo not drawn) [Compound A13D6-PF3], the “activity” value is reported as “good cellular activity similar to those of the targeting ligand per se”. The EC50 under setting [1] is less than 10 nM.

Take `CC(C)(C)OC(=O)c1nc(N2CCc3cccc(C(=O)Nc4nc5ccccc5s4)c3C2)ccc1CCCOc1ccc(C#CCN2CCN(CC3CCN(c4ccc(N5CCC(=O)NC5=O)cc4)CC3)CC2)cc1F` [APQ10-1]: the “activity” value is listed as “lower killing activity or loss the function”. The EC50 under setting [1] was greater than 1000 nM.

Turning to `COC(=O)c1nc(N2CCc3cccc(C(=O)Nc4nc5ccccc5s4)c3C2)ccc1CCCOc1ccc(C#CCN2CCN(c3ccc(N4CCC(=O)NC4=O)cc3)CC2)cc1F` [APQ9-1], the “activity” value was “lower killing activity or loss the function”. In addition, under setting [1], the EC50 was greater than 1000 nM.

As for `O=C1CCN(c2ccc(OCCN3CCC(CN4CCN(CC#Cc5ccc(OCCCc6ccc(N7CCc8cccc(C(=O)Nc9nc%10ccccc%10s9)c8C7)nc6C(=O)O)c(F)c5)CC4)CC3)cc2)C(=O)N1` [APQ8], the EC50 under setting [1] was in the range of 10 to 100 nM.

Turning to `COc1cc(N2CCN(CC#Cc3ccc(OCCCc4ccc(N5CCc6cccc(C(=O)Nc7nc8ccccc8s7)c6C5)nc4C(=O)O)c(F)c3)CC2)ccc1N1CCC(=O)NC1=O` [APQ902a], the EC50 was less than 10 nM under setting [1] and less than 10 nM under setting [2].

For `O=C1CCN(c2ccc(N3CCN(C(=O)CCN4CCN(CC#Cc5ccc(OCCCc6ccc(N7CCc8cccc(C(=O)Nc9nc%10ccccc%10s9)c8C7)nc6C(=O)O)c(F)c5)CC4)CC3)cc2)C(=O)N1` [APQ5a], the EC50 is less than 10 nM under setting [1] and less than 10 nM under setting [2].

Turning to `Cc1c(-c2ccc(N3CCc4cccc(C(=O)Nc5nc6ccccc6s5)c4C3)nc2C(=O)NCCn2cc(COCCOCCOCCNc3cccc4c3C(=O)N(C3CCC(=O)NC3=O)C4=O)nn2)cnn1CC12CC3CC(CC(C3)C1)C2` (stereo not drawn) [APR3], the “activity” value was “good cellular activity similar to those of the targeting ligand per se”. Also, under setting [1], the EC50 is less than 10 nM.

As to `O=C1CCN(c2ccc(N3CC(CN4CCN(CC#Cc5ccc(OCCCc6ccc(N7CCc8cccc(C(=O)Nc9nc%10ccccc%10s9)c8C7)nc6C(=O)O)c(F)c5)CC4)C3)cc2)C(=O)N1` [APQ6b], under setting [1], the EC50 lay in the range of 10 to 100 nM.

`O=C1CCN(c2ccc(N3CCN(C4CCN(CC#Cc5ccc(OCCCc6ccc(N7CCc8cccc(C(=O)Nc9nc%10ccccc%10s9)c8C7)nc6C(=O)O)c(F)c5)CC4)CC3)cc2)C(=O)N1` [APQ7a]: the “killing Molt-4 cells at different concentrations (Figure 1), in words” value is given as “comparable to A-1331852”. Moreover, under setting [1], the EC50 was less than 10 nM. In addition, under setting [2], the EC50 is less than 10 nM.

In the case of `Cc1ncsc1-c1ccc([C@H](C)NC(=O)[C@@H]2C[C@@H](O)CN2C(=O)[C@@H](NC(=O)CCN2CCC(CN3CCN(CC#Cc4ccc(OCCCc5ccc(N6CCc7cccc(C(=O)Nc8nc9ccccc9s8)c7C6)nc5C(=O)O)c(F)c4)CC3)CC2)C(C)(C)C)cc1` [APQ3], under setting [1], the EC50 was in the range of 10 to 100 nM.

As to `O=C1CCC(N2C(=O)c3cccc(NCCOCCOCCOCCOCCNC(=O)c4nc(N5CCc6cccc(C(=O)Nc7nc8ccccc8s7)c6C5)ccc4CCCOc4ccc(C#CCN5CCNCC5)cc4F)c3C2=O)C(=O)N1` (stereo not drawn) [AF4], the “activity” value is listed as “lower killing activity or loss the function”. Under setting [1], the EC50 is greater than 1000 nM.

For `O=C1CCC(n2nnc3ccc(NCCN4CCC(CN5CCN(CC#Cc6ccc(OCCCc7ccc(N8CCc9cccc(C(=O)Nc%10nc%11ccccc%11s%10)c9C8)nc7C(=O)O)c(F)c6)CC5)CC4)cc3c2=O)C(=O)N1` (stereo not drawn) [APQ11], the “killing Molt-4 cells at different concentrations (Figure 1), in words” value was “comparable to A-1331852”. Besides, the EC50 under setting [1] is less than 10 nM. Further, under setting [2], the EC50 is less than 10 nM.

As for `Cc1c(-c2ccc(N3CCc4cccc(C(=O)Nc5nc6ccccc6s5)c4C3)nc2C(=O)NCCOCCOCCNc2cccc3c2C(=O)N(C2CCC(=O)NC2=O)C3=O)cnn1CC12CC3CC(CC(C3)C1)C2` (stereo not drawn) [APF2], the “activity” value is “good cellular activity similar to those of the targeting ligand per se”. In addition, the EC50 under setting [1] is less than 10 nM.
